Test results from ChEMBL document CHEMBL4507305, “Data for DCP probe TP-024” (2021).

How the values were obtained:
[1] = biological target: 5'-AMP-activated protein kinase catalytic subunit alpha-1 (Homo sapiens) (UniProt Q13131); settings: Compound concentration 1000.0 nM
[2] = biological target: Cytoplasmic tyrosine-protein kinase BMX (Homo sapiens) (UniProt P51813); settings: Compound concentration 1000.0 nM
[3] = biological target: Serine/threonine-protein kinase B-raf (Homo sapiens) (UniProt P15056); settings: Compound concentration 1000.0 nM
[4] = biological target: Mitotic checkpoint serine/threonine-protein kinase BUB1 (Homo sapiens) (UniProt O43683); settings: Compound concentration 1000.0 nM
[5] = biological target: Discoidin domain-containing receptor 2 (Homo sapiens) (UniProt Q16832); settings: Compound concentration 1000.0 nM
[6] = tested on: Epidermal growth factor receptor (Homo sapiens), P00533 [T790M]; settings: Compound concentration 1000.0 nM
[7] = biological target: Ephrin type-A receptor 8 (Homo sapiens) (UniProt P29322); settings: Compound concentration 1000.0 nM
[8] = biological target: Receptor-type tyrosine-protein kinase FLT3 (Homo sapiens) (UniProt P36888); settings: Compound concentration 1000.0 nM
[9] = tested on: eIF-2-alpha kinase GCN2 (Homo sapiens), Q9P2K8 [S808G]; settings: Compound concentration 1000.0 nM
[10] = biological target: Rhodopsin kinase GRK1 (Homo sapiens) (UniProt Q15835); settings: Compound concentration 1000.0 nM
[11] = biological target: Serine/threonine-protein kinase ICK (Homo sapiens) (UniProt Q9UPZ9); settings: Compound concentration 1000.0 nM
[12] = biological target: Tyrosine-protein kinase JAK1 (Homo sapiens) (UniProt P23458); settings: Compound concentration 1000.0 nM
[13] = tested on: Mast/stem cell growth factor receptor Kit (Homo sapiens), P10721 [D816V]; settings: Compound concentration 1000.0 nM
[14] = biological target: Serine/threonine-protein kinase LATS1 (Homo sapiens) (UniProt O95835); settings: Compound concentration 1000.0 nM
[15] = biological target: MAP kinase-interacting serine/threonine-protein kinase 2 (Homo sapiens) (UniProt Q9HBH9); settings: Compound concentration 1000.0 nM
[16] = biological target: Serine/threonine-protein kinase 26 (Homo sapiens) (UniProt Q9P289); settings: Compound concentration 1000.0 nM
[17] = biological target: Serine/threonine-protein kinase Nek10 (Homo sapiens) (UniProt Q6ZWH5); settings: Compound concentration 1000.0 nM
[18] = biological target: Serine/threonine-protein kinase Nek2 (Homo sapiens) (UniProt P51955); settings: Compound concentration 1000.0 nM
[19] = biological target: Mitogen-activated protein kinase kinase kinase 14 (Homo sapiens) (UniProt Q99558); settings: Compound concentration 1000.0 nM
[20] = biological target: Cyclin-dependent kinase 15 (Homo sapiens) (UniProt Q96Q40); settings: Compound concentration 1000.0 nM
[21] = biological target: Phosphatidylinositol 5-phosphate 4-kinase type-2 gamma (Homo sapiens) (UniProt Q8TBX8); settings: Compound concentration 1000.0 nM
[22] = biological target: Membrane-associated tyrosine- and threonine-specific cdc2-inhibitory kinase (Homo sapiens) (UniProt Q99640); settings: Compound concentration 1000.0 nM
[23] = biological target: Serine/threonine-protein kinase PLK2 (Homo sapiens) (UniProt Q9NYY3); settings: Compound concentration 1000.0 nM
[24] = biological target: Serine/threonine-protein kinase PLK4 (Homo sapiens) (UniProt O00444); settings: Compound concentration 1000.0 nM
[25] = biological target: Serine/threonine-protein kinase D3 (Homo sapiens) (UniProt O94806); settings: Compound concentration 1000.0 nM
[26] = biological target: cGMP-dependent protein kinase 2 (Homo sapiens) (UniProt Q13237); settings: Compound concentration 1000.0 nM
[27] = biological target: Interferon-induced, double-stranded RNA-activated protein kinase (Homo sapiens) (UniProt P19525); settings: Compound concentration 1000.0 nM
[28] = tested on: Proto-oncogene tyrosine-protein kinase receptor Ret (Homo sapiens), P07949 [V804M]; settings: Compound concentration 1000.0 nM
[29] = biological target: Ribosomal protein S6 kinase beta-1 (Homo sapiens) (UniProt P23443); settings: Compound concentration 1000.0 nM
[30] = biological target: SNF-related serine/threonine-protein kinase (Homo sapiens) (UniProt Q9NRH2); settings: Compound concentration 1000.0 nM
[31] = biological target: SRSF protein kinase 2 (Homo sapiens) (UniProt P78362); settings: Compound concentration 1000.0 nM
[32] = biological target: Serine/threonine-protein kinase 36 (Homo sapiens) (UniProt Q9NRP7); settings: Compound concentration 1000.0 nM
[33] = biological target: Serine/threonine-protein kinase TAO2 (Homo sapiens) (UniProt Q9UL54); settings: Compound concentration 1000.0 nM
[34] = biological target: Serine/threonine-protein kinase tousled-like 1 (Homo sapiens) (UniProt Q9UKI8); settings: Compound concentration 1000.0 nM
[35] = biological target: Serine/threonine-protein kinase ULK3 (Homo sapiens) (UniProt Q6PHR2); settings: Compound concentration 1000.0 nM
[36] = biological target: Serine/threonine-protein kinase WNK1 (Homo sapiens) (UniProt Q9H4A3); settings: Compound concentration 1000.0 nM
[37] = biological target: Serine/threonine-protein kinase WNK3 (Homo sapiens) (UniProt Q9BYP7); settings: Compound concentration 1000.0 nM
[38] = biological target: Serine/threonine-protein kinase 32A (Homo sapiens) (UniProt Q8WU08); settings: Compound concentration 1000.0 nM
[39] = biological target: Serine/threonine-protein kinase 32C (Homo sapiens) (UniProt Q86UX6); settings: Compound concentration 1000.0 nM
[40] = biological target: Tyrosine-protein kinase Yes (Homo sapiens) (UniProt P07947); settings: Compound concentration 1000.0 nM
[41] = biological target: Sodium-dependent noradrenaline transporter (Homo sapiens) (UniProt P23975); settings: Compound concentration 10.0 uM
[42] = biological target: Beta-1 adrenergic receptor (Homo sapiens) (UniProt P08588); settings: Compound concentration 10.0 uM
[43] = biological target: Muscarinic acetylcholine receptor M2 (Homo sapiens) (UniProt P08172); settings: Compound concentration 10.0 uM
[44] = biological target: Muscarinic acetylcholine receptor M4 (Homo sapiens) (UniProt P08173); settings: Compound concentration 10.0 uM
[45] = biological target: Alpha-1D adrenergic receptor (Homo sapiens) (UniProt P25100); settings: Compound concentration 10.0 uM

Chain of Muscarinic acetylcholine receptor M4 (Homo sapiens) (P08173 whole entry): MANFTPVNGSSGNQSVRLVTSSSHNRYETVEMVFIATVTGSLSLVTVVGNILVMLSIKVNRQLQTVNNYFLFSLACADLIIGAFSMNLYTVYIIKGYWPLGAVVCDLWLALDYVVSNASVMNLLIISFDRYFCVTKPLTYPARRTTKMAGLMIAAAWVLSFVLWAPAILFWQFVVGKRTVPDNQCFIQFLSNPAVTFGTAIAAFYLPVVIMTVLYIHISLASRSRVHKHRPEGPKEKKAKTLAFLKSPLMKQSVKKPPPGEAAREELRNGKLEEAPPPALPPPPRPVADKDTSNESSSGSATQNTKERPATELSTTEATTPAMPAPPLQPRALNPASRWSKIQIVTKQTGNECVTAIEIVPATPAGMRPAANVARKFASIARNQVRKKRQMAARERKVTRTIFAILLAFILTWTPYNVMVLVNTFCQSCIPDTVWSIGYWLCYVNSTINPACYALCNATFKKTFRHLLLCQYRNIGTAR
Chain of SNF-related serine/threonine-protein kinase (Homo sapiens) (Q9NRH2 whole entry): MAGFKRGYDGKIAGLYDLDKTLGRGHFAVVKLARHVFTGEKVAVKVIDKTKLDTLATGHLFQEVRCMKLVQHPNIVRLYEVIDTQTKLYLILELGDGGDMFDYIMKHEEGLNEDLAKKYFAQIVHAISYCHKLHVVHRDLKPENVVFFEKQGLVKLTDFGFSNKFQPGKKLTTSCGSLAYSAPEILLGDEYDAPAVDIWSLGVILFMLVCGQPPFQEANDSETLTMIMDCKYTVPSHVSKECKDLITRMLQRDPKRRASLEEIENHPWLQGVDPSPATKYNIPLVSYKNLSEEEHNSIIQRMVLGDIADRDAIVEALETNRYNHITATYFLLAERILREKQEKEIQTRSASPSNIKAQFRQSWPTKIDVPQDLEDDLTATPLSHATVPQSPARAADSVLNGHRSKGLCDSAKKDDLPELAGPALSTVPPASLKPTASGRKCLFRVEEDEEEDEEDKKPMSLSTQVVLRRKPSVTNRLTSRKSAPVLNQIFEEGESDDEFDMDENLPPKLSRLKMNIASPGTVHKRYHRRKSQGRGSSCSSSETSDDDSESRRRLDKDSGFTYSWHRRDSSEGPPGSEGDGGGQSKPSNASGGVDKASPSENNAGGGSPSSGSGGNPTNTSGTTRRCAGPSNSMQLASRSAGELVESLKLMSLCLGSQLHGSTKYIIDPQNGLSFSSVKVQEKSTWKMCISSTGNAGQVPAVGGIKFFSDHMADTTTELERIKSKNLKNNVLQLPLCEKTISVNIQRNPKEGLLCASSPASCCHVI
Chain of Serine/threonine-protein kinase 36 (Homo sapiens) (Q9NRP7 whole entry): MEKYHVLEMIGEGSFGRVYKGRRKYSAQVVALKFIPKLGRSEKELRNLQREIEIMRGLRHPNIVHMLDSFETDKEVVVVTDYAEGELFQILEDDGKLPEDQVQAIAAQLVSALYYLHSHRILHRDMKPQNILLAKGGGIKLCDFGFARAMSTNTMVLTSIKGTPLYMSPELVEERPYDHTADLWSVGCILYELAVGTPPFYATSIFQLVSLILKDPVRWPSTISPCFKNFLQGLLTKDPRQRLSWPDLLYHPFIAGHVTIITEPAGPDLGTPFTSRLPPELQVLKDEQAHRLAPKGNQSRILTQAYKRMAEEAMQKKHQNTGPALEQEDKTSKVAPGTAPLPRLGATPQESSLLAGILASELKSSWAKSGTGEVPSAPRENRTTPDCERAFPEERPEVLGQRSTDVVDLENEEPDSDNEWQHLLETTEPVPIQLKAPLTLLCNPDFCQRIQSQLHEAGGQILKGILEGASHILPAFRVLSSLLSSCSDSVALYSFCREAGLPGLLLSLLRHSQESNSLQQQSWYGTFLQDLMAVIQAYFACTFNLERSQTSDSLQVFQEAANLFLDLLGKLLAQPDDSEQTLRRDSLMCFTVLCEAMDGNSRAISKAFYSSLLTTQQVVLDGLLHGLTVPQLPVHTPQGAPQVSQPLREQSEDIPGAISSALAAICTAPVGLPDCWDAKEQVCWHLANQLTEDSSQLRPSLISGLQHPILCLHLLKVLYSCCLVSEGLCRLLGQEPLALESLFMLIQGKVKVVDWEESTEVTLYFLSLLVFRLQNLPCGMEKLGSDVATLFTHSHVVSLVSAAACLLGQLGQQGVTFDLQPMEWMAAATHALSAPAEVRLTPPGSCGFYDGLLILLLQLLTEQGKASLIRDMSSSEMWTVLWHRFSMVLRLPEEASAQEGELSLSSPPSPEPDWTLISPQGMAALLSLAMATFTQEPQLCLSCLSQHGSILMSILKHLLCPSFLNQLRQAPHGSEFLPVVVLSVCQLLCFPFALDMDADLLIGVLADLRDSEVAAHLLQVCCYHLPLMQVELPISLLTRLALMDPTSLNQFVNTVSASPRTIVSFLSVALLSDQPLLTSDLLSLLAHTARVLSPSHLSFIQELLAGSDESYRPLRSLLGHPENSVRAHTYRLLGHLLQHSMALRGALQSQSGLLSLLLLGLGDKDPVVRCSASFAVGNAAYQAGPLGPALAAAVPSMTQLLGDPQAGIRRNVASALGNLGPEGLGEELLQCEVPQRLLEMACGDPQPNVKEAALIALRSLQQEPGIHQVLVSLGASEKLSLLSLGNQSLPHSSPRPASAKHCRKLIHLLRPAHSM
Chain of cGMP-dependent protein kinase 2 (Homo sapiens) (Q13237 whole entry): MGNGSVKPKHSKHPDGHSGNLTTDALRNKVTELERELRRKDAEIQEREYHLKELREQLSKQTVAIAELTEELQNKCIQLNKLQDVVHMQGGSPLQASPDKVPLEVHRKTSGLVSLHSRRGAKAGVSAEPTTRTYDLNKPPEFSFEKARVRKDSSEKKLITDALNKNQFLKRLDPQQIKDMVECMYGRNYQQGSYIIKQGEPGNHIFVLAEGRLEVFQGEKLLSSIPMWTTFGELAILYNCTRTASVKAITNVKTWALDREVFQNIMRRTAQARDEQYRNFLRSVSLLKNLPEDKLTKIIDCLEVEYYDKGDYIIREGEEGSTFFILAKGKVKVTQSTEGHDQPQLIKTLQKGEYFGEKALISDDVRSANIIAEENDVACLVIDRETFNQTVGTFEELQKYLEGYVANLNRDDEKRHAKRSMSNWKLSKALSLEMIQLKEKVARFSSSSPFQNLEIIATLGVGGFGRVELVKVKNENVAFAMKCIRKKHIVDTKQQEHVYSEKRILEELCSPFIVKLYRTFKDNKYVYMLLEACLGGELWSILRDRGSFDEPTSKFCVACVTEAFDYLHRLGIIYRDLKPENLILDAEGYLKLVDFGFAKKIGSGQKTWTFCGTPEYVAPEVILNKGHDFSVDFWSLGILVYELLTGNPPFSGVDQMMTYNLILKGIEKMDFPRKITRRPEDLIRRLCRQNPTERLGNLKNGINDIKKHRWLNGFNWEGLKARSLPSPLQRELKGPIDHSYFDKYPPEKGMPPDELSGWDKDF
Chain of Serine/threonine-protein kinase ICK (Homo sapiens) (Q9UPZ9 whole entry): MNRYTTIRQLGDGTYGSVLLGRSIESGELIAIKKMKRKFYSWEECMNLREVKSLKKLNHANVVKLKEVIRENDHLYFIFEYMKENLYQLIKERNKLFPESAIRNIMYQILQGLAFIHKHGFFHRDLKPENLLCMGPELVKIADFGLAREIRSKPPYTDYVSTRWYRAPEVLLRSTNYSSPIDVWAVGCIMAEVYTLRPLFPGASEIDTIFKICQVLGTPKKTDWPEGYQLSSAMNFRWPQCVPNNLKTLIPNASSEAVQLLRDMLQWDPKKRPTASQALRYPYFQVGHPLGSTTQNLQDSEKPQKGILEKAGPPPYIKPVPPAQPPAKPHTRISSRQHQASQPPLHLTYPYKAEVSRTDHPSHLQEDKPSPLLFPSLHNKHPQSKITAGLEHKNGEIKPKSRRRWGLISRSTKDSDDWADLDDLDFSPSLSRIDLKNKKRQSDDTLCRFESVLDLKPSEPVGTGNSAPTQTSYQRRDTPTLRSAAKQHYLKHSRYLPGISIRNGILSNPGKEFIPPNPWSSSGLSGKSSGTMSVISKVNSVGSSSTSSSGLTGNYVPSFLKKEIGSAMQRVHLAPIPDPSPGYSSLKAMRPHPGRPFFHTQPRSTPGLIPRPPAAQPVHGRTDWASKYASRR
Chain of Serine/threonine-protein kinase PLK4 (Homo sapiens) (O00444 whole entry): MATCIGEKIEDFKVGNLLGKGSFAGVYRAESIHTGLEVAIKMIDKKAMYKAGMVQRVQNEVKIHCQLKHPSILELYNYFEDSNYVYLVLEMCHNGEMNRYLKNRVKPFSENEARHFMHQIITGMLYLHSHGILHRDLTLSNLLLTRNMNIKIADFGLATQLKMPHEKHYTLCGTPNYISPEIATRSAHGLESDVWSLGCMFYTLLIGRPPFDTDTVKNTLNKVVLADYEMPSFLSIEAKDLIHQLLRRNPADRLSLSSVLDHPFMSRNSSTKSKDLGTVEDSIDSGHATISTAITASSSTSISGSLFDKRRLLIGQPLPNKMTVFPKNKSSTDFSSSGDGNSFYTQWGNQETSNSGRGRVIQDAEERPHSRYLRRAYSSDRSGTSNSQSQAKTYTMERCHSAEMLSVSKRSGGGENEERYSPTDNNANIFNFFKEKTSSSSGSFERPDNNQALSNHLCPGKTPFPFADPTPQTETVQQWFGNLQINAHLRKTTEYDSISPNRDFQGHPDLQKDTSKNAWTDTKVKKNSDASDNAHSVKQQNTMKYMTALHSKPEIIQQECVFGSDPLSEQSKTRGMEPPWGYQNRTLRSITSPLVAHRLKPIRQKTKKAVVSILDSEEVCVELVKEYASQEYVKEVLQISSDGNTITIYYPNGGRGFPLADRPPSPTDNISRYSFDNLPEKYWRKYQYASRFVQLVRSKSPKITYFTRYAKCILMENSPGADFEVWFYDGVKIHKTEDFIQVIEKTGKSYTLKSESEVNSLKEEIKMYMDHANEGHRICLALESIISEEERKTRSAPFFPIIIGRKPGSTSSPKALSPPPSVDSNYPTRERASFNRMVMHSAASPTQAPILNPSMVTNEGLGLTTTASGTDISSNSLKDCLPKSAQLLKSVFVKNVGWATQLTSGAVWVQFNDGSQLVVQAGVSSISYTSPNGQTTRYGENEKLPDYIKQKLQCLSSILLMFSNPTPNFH

For Cc1cc(-n2nc(Cc3cc(F)cc(C(F)(F)F)c3)nc2C)ccc1C(N)=O [TP-024], the residual activity [1] was 100%, the residual activity [2] was 100% and the residual activity [3] was 86%. The residual activity [4] was 100%, the residual activity [5] was 100% and the residual activity [6] was 94%. The residual activity [7] was 100%, the residual activity [8] was 100% and the residual activity [9] was 100%. The residual activity [10] was 87%, the residual activity [11] was 100% and the residual activity [12] was 100%. For the same molecule, the residual activity [13] was 100%, the residual activity [14] was 100% and the residual activity [15] was 100%. For the same molecule, the residual activity [16] was 100%, the residual activity [17] was 100% and the residual activity [18] was 100%. The residual activity [19] was 100%, the residual activity [20] was 88% and the residual activity [21] was 100%. It also gave a residual activity [22] of 88%, a residual activity [23] of 100% and a residual activity [24] of 84%. The residual activity [25] was 81%, the residual activity [26] was 86% and the residual activity [27] was 62%. For the same molecule, the residual activity [28] was 100%, the residual activity [29] was 100% and the residual activity [30] was 100%. The residual activity [31] was 100%, the residual activity [32] was 100% and the residual activity [33] was 91%. It also gave a residual activity [34] of 93%, a residual activity [35] of 100% and a residual activity [36] of 100%. The residual activity [37] was 100%, the residual activity [38] was 85% and the residual activity [39] was 100%. For the same molecule, the residual activity [40] was 100%, the inhibition [41] was -6.7% and the inhibition [42] was 11.8%. For the same molecule, the inhibition [43] was 5.69%, the inhibition [44] was 6.9% and the inhibition [45] was 3.15%.

In the case of Cc1nc(Cc2cccc(C(F)(F)F)c2)sc1-c1ccc(C(N)=O)nc1 [TP-024n], the residual activity [1] is reported as 100%, the residual activity [2] is reported as 59% and the residual activity [3] is reported as 73%. The residual activity [4] was 100%, the residual activity [5] was 100% and the residual activity [6] was 98%. It also gave a residual activity [7] of 100%, a residual activity [8] of 87% and a residual activity [9] of 100%. It also gave a residual activity [10] of 98%, a residual activity [11] of 100% and a residual activity [12] of 86%. It also gave a residual activity [13] of 81%, a residual activity [14] of 100% and a residual activity [15] of 100%. For the same molecule, the residual activity [16] was 83%, the residual activity [17] was 100% and the residual activity [18] was 100%. For the same molecule, the residual activity [19] was 100%, the residual activity [20] was 86% and the residual activity [21] was 0.3%. It also gave a residual activity [22] of 67%, a residual activity [23] of 82% and a residual activity [24] of 90%. The residual activity [25] was 97%, the residual activity [26] was 84% and the residual activity [27] was 49%. It also gave a residual activity [28] of 88%, a residual activity [29] of 83% and a residual activity [30] of 84%. It also gave a residual activity [31] of 100%, a residual activity [32] of 100% and a residual activity [33] of 86%. The residual activity [34] was 100%, the residual activity [35] was 100% and the residual activity [36] was 100%. It also gave a residual activity [37] of 61%, a residual activity [38] of 76% and a residual activity [39] of 87%. For the same molecule, the residual activity [40] was 100%, the inhibition [41] was -8.77% and the inhibition [42] was 7.56%. For the same molecule, the inhibition [43] was 12.8%, the inhibition [44] was 2.94% and the inhibition [45] was -5.68%.
